According to publication PMC12434071, “Platinum-group metal half-sandwich complexes of 1-(α-D-glucopyranosyl)-4-hetaryl-1,2,3-triazoles: synthesis, solution equilibrium studies, and investigation of their anticancer and antimicrobial activities” (Frontiers in Chemistry, 2025):

Tests used:
[1] = system: A2780 cells; test: SRB assay on A2780 cells; type: cell-based; conditions: maximal inhibition; 48 h treatment; maximum concentration 100 µM
Procedure: For MTT assays, 4 × 10^3 A2780 cells were plated into 96-well plates, and for SRB assays, 1.5 × 10^3 A2780 cells were plated into 96-well plates. Cells were treated with the compounds in the concentrations indicated for either 4 h for an MTT assay or for 48 h for an SRB assay. Data are represented as average ± SD, from four biological replicates, with the exception of the MTT dataset of Ir-2b and the SRB datasets of 2b, Ru/Ir-2b, and Ir-3a, which were derived from three biological replicates. Individual assays were performed in duplicate. Values were normalized for vehicle-treated cells, and the absorbance for vehicle-treated cells equals 1. Data are represented as fold change compared to vehicle-treated controls. Normality was assessed using the D’Agostino–Pearson test. Statistical significance was assessed using a two-way ANOVA test followed by Tukey’s post hoc test. For better visibility, normality, transformations, statistical tests, and p values are presented in an MS Excel sheet at https://figshare.com/s/3a0aa60b66f3f746f41e. Color code: black—free ligand (2a,b or 3a), khaki—ruthenium complex (Ru-2a,b or Ru-3a), green—iridium complex (Ir-2a,b or Ir-3a).  FIGURE 7 The ruthenium, osmium, and iridium complexes of ligands 4a, 4b, and 5a are cytostatic on ovarian cancer models with a good therapeutic index. For SRB assays, 1.5 × 10^3 A2780 cells, 1.5 × 10^3 ID8 cells, or 4 × 10^3 primary fibroblasts were plated into 96-well plates. Cells were treated with the compounds in the concentrations indicated for 48 h. Data are represented as average ± SD, from four biological replicates on A2780 and human primary fibroblasts, except in the case of Os complexes, where experiments were performed in three biological replicates. ID8 cells were assessed in three biological replicates. Individual assays were performed in duplicate. Values were normalized for vehicle-treated cells, and the absorbance for vehicle-treated cells equals 1. Normality was assessed using the D’Agostino–Pearson test. Statistical significance was assessed using a two-way ANOVA test followed by Tukey’s post hoc test. For better visibility, normality, transformations, statistical tests, and p values are presented in an MS Excel sheet at https://figshare.com/s/3a0aa60b66f3f746f41e. Color code: black—free ligand (4a,b or 5a), khaki—ruthenium complex (Ru-4a,b), blue—osmium complex (Os-4a,b or Os-5a), green—iridium complex (Ir-4a,b), and red—rhodium complex (Rh-4a,b). An SRB assay measures protein content of cells in correlation with the cell number in an assay well and can therefore be used to assess cell proliferation or long-term cytostasis ([Skehan et al., 1990]). Cells were seeded into 96-well plates the day before the treatment for the assay. Cells were treated with the various compounds for 48 h. Then, the medium was removed, and cells were fixed with 10% trichloroacetic acid. Fixed cells were washed in distilled water three times, followed by staining with SRB (0.4 m/V% dissolved in 1% acetic acid) for 10 min. Stained cells were washed in 1% acetic acid five times; the acetic acid was removed, and the cells were left to dry. Protein-bound SRB was released by adding 100 µL of 10 mM Tris base. Plates were measured in a plate photometer (Thermo Scientific Multiscan GO spectrophotometer, Waltham, MA, United States) at 540 nm. Certain wells were designated to contain vehicle-treated cells on each plate. […] Statistical analysis was performed using version 8.0.1 of GraphPad Prism. Values were tested for normal distribution using the D’Agostino–Pearson or Shapiro–Wilk normality tests. When necessary, values were log-normalized or normalized using the Box–Cox or two-step normalization method ([Box and Cox, 1964]), as indicated in the MS Excel file listing the values at https://figshare.com/s/3a0aa60b66f3f746f41e. […]

[2] = system: A2780 cells; test: MTT reduction assay on A2780 cells; type: cell-based; conditions: maximal inhibition; 4 h treatment; maximum concentration 100 µM
Procedure: For MTT assays, 4 × 10^3 A2780 cells were plated into 96-well plates, and for SRB assays, 1.5 × 10^3 A2780 cells were plated into 96-well plates. Cells were treated with the compounds in the concentrations indicated for either 4 h for an MTT assay or for 48 h for an SRB assay. Data are represented as average ± SD, from four biological replicates, with the exception of the MTT dataset of Ir-2b and the SRB datasets of 2b, Ru/Ir-2b, and Ir-3a, which were derived from three biological replicates. Individual assays were performed in duplicate. Values were normalized for vehicle-treated cells, and the absorbance for vehicle-treated cells equals 1. Data are represented as fold change compared to vehicle-treated controls. Normality was assessed using the D'Agostino-Pearson test. Statistical significance was assessed using a two-way ANOVA test followed by Tukey's post hoc test. For better visibility, normality, transformations, statistical tests, and p values are presented in an MS Excel sheet at https://figshare.com/s/3a0aa60b66f3f746f41e. Color code: black-free ligand (2a,b or 3a), khaki-ruthenium complex (Ru-2a,b or Ru-3a), green-iridium complex (Ir-2a,b or Ir-3a).  FIGURE 5 The ruthenium, osmium, and iridium complexes of ligands 4a, 4b, and 5a decrease MTT reduction. For MTT assays, 4 × 10^3 A2780 cells, 3 × 10^3 ID8 cells, or 6 × 10^3 human primary fibroblasts were plated into 96-well plates. Cells were treated with the compounds in the concentrations indicated for 4 h. Data are represented as average ± SD, from four biological replicates on A2780, and from three biological replicates on ID8 and human primary fibroblasts. For the datasets of 5a and Os-5a on human primary fibroblasts, the data represent four biological replicates. Individual assays were performed in duplicate. Values were normalized for vehicle-treated cells, and the absorbance for vehicle-treated cells equals 1. Normality was assessed using the D'Agostino-Pearson test. Statistical significance was assessed using a two-way ANOVA test followed by Tukey's post hoc test. For better visibility, normality, transformations, statistical tests, and p values are presented in an MS Excel sheet at https://figshare.com/s/3a0aa60b66f3f746f41e. Color code: black-free ligand (4a,b or 5a), khaki-ruthenium complex (Ru-4a,b), green-iridium complex (Ir-4a,b), blue-osmium complex (Os-4a,b or Os-5a), and red-rhodium complex (Rh-4a,b). An MTT reduction assay measures the activity of mitochondrial complex I and can be used to detect toxicity ([[…] et al., 2016]). The assay was performed in a manner similar to that described by [[…] et al. (2023b)]. Briefly, cells were plated into 96-well plates the day before the assay. Cells were treated with the compounds for 4 h; then, MTT was added to a 0.5 mg/mL final concentration, and cells were incubated at 37°C in a cell incubator for 40-60 min, as a function of the cell line being assessed. The culture medium was removed, the reduced MTT dye was dissolved in dimethylsulfoxide, and plates were measured in a plate photometer (Thermo Scientific Multiscan GO spectrophotometer, Waltham, MA, United States) at 540 nm. Certain wells were designated to contain vehicle-treated cells on each plate. In calculations, the readings for these wells were considered to 1, and all readings were expressed relative to these values. Statistical analysis was performed using version 8.0.1 of GraphPad Prism. Values were tested for normal distribution using the D'Agostino-Pearson or Shapiro-Wilk normality tests. When necessary, values were log-normalized or normalized using the Box-Cox or two-step normalization method ([Box and Cox, 1964]), as indicated in the MS Excel file listing the values at https://figshare.com/s/3a0aa60b66f3f746f41e. The following statistical test, post hoc test, and the level of significance are indicated in the MS Excel file listing the values at https://figshare.com/s/3a0aa60b66f3f746f41e. […]

[3] = pH-potentiometric titration, protonation constants (pKa) of the ligands; type: physicochemical; conditions: 0.20 M KCl, 25.0°C; N-heterocyclic ring of the ligand
Procedure: In order to obtain information on the acidbase character of the ligands and on the stoichiometry and stability of the complexes present in aqueous medium, potentiometric titrations were carried out in selected systems. Based on the results, both 3a and 3b, having good enough solubility in water, are capable of releasing one hydrogen ion from the fully protonated forms in the measurable pH range (see Figure 3, “pK”). The calculated pK a values appear in Table 4; these values belong to the N-heterocyclic ring of the ligands. […]. For comparison, the previously prepared β-anomeric pair of 3a, compound 3a-β ([Kacsir et al., 2021]) in Table 4, was also studied.
For solution studies, doubly deionized and ultra-filtered water was obtained from a Milli-Q RG (Millipore) water purification system. pH-potentiometric measurements were carried out at a constant ionic strength of 0.20 M KCl and at 25.0°C. Carbonate-free KOH solutions of known concentrations (ca. 0.2 M) were used as titrant. […]. A Mettler Toledo DL50 titrator equipped with a DG114-SC combined glass electrode was used for the pH-potentiometric measurements. […] The titrations were performed in the pH range of 2.0–11.0 in equilibrium-controlled mode, during which the pH equilibrium was assumed to be reached if a change in the measured potential was less than 0.1 mV within 90 s. […]

[4] = pH-potentiometric titration, stability constants (logβ) of ML complexes; type: physicochemical; conditions: [(η^5-Cp*)Rh]^2+; 0.20 M KCl, 25.0°C
From the text: […]. […] Comparing the two metal ion containing systems, the complexation with [(η^6-p-cym)Ru]^2+, starts at a more acidic pH, but hydrolytic processes occur already in the physiological pH range due to the higher affinity of the metal ion to hydrolysis. For the [(η^5-Cp*)Rh]^2+, these processes are shifted towards higher pH; […].
For solution studies, doubly deionized and ultra-filtered water was obtained from a Milli-Q RG (Millipore) water purification system. pH-potentiometric measurements were carried out at a constant ionic strength of 0.20 M KCl and at 25.0°C. Carbonate-free KOH solutions of known concentrations (ca. 0.2 M) were used as titrant. […]. A Mettler Toledo DL50 titrator equipped with a DG114-SC combined glass electrode was used for the pH-potentiometric measurements. […] The titrations were performed in the pH range of 2.0–11.0 in equilibrium-controlled mode, during which the pH equilibrium was assumed to be reached if a change in the measured potential was less than 0.1 mV within 90 s. […] The protonation constants of the ligands and the overall stability constants of the complexes, βp,q,r = [MpHqLr]/[M]^p[H]^q[L]^r (where “M” stands for [(η^5-Cp*)Rh(H2O)3]^2+ and “L” represents the completely deprotonated form of the ligand), were calculated with the aid of the SUPERQUAD ([Gans et al., 1985]) and PSEQUAD ([Zékány and Nagypál, 1985]) computer programs, respectively. […]

[5] = system: cisplatin-resistant A2780 cells; conditions: ref Kacsir et al., 2023a; cited from earlier work

pK a [3]	logβ [ML] [4]	Structure (SMILES)	A2780 SRB max % [1] [%]	A2780 MTT max % [2] [%]	IC50 [5] [µM]
–	–	CC(=O)OC[C@H]1O[C@H](n2cc(-c3ccccn3)nn2)[C@H](OC(C)=O)[C@@H](OC(C)=O)[C@@H]1OC(C)=O [Complex 2a, 1-(2’,3’,4’,6’-Tetra-O-acetyl-α-D-glucopyranosyl)-4-(pyridin-2-yl)-1,2,3-triazole]	0	0	–
–	–	CC(=O)OC[C@H]1O[C@H](n2cc(-c3ccc4ccccc4n3)nn2)[C@H](OC(C)=O)[C@@H](OC(C)=O)[C@@H]1OC(C)=O [Complex 2b, 1-(2’,3’,4’,6’-Tetra-O-acetyl-α-D-glucopyranosyl)-4-(quinolin-2-yl)-1,2,3-triazole]	22.33	0	–
3.56 (1)	5.55 (3)	OC[C@H]1O[C@H](n2cc(-c3ccc4ccccc4n3)nn2)[C@H](O)[C@@H](O)[C@@H]1O [Complex 3b, 1-(α-D-Glucopyranosyl)-4-(quinolin-2-yl)-1,2,3-triazole]	–	–	–
–	–	N.N.[Cl][Pt][Cl] [cisplatin]	–	–	16.5
